# Target: glucocorticoid receptor (Homo sapiens (Human), UniProt P04150)
# Experiment: HepG2 TAT assay: inhibition of dexamethasone-induced tyrosine aminotransferase (TAT) activity
# Type: cell-based
# Details: HepG2 cells, challenge of 100 nM dexamethasone, 18-24 hr; IC50 converted to Ki by Cheng and Prusoff equation
# Method in brief: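 Cells lysed 15 min at 4 °C; TAT enzyme reaction 2 h at 37 °C, stopped with KOH, 30 min further at 37 °C. Inhibition fitted to 4-parameter logistic.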
# glucocorticoid receptor, sequence (P04150 whole entry): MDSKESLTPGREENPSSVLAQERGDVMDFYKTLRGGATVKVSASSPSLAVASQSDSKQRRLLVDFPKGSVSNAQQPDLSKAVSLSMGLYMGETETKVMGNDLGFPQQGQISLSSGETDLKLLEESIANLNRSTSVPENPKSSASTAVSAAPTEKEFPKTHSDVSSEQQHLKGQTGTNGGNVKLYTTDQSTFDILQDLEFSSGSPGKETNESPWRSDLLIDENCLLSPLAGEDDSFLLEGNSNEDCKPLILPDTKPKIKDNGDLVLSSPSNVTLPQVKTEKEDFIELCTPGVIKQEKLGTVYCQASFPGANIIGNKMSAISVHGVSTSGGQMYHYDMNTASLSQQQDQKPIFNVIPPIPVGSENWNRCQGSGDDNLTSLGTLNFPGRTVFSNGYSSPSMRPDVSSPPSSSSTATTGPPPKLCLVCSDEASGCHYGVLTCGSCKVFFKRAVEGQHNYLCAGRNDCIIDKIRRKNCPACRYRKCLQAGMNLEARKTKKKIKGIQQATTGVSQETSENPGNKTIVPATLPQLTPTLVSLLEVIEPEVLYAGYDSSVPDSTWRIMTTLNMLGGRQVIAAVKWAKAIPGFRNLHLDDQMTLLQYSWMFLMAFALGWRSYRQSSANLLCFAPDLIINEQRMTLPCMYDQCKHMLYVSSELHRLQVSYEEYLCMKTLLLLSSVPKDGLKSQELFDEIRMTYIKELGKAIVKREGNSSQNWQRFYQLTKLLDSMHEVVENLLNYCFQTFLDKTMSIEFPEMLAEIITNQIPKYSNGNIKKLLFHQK
row,SMILES,Ki
1,CNS(=O)(=O)N1C[C@@H]2[C@@H](c3ccccc3)[C@]2(c2cc3cnn(-c4ccc(F)cc4)c3cc2C)C1 [Example 106],55 nM
2,Cc1cc2c(cnn2-c2ccc(F)cc2)cc1[C@@]12CN(S(=O)(=O)CC3CCOCC3)C[C@@H]1[C@H]2c1ccccc1 [Example 107],32 nM
3,Cc1cc2c(cnn2-c2ccc(F)cc2)cc1[C@@]12CN(S(=O)(=O)N(C)C)C[C@@H]1[C@H]2c1ccccc1 [Example 108],16 nM
4,COC1CCN(S(=O)(=O)N2C[C@@H]3[C@@H](c4ccccc4)[C@]3(c3cc4cnn(-c5ccc(F)cc5)c4cc3C)C2)CC1 [Example 109],13 nM
5,"Cc1cc2c(cnn2-c2ccc(F)cc2)cc1C12CN(S(=O)(=O)c3cnn(C)n3)CC1C2c1ncco1 (centres unmarked) [Example 133, 2-(1-(1-(4-fluorophenyl)-6-methyl-1H-indazol-5-yl)-3-((2-methyl-2H-1,2,3-triazol-4-yl)sulfonyl)-3-azabicyclo[3.1.0]hexan-6-yl)oxazole]",260 nM
6,"Cc1cc2c(cnn2-c2ccc(F)cc2)cc1[C@@]12CN(S(=O)(=O)c3cnn(C)n3)C[C@@H]1[C@H]2c1nc2ccccc2o1 [Example 134, 2-(1-(1-(4-fluorophenyl)-6-methyl-1H-indazol-5-yl)-3-((2-methyl-2H-1,2,3-triazol-4-yl)sulfonyl)-3-azabicyclo[3.1.0]hexan-6-yl)benzo[d]oxazole]",55 nM
7,"Cc1cc2c(cnn2-c2ccc(F)cc2)cc1[C@]12CN(C(=O)c3cnnn3C)C[C@H]1[C@@H]2c1ccccc1 [Example 144, (1-(1-(4-fluorophenyl)-6-methyl-1H-indazol-5-yl)-6-phenyl-3-azabicyclo[3.1.0]hexan-3-yl)(1-methyl-1H-l,2,3-triazol-5-yl)methanone]",120 nM
8,"Cc1cc2c(cnn2-c2ccc(F)cc2)cc1[C@]12CN(C(=O)c3cn(C)nn3)C[C@H]1[C@@H]2c1ccccc1 [Example 147, (1-(1-(4-fluorophenyl)-6-methyl-1H-indazol-5-yl)-6-phenyl-3-azabicyclo[3.1.0]hexan-3-yl)(1-methyl-1H-l,2,3-triazol-4-yl)methanone]",37 nM

# — patent US20250115583A1, “BICYCLIC INDAZOLE GLUCOCORTICOID RECEPTOR ANTAGONISTS” (Corcept Therapeutics Incorporated, priority 2021, published 2025)
